Measured values reported in patent US20100016366A1, “Novel Compounds Active as Muscarinic Receptor Antagonists” (priority 2008, published 2010).

What follows are compounds tested against T1, human muscarinic M3 receptor (Homo sapiens, UniProt P20309) (assay: hM3 competition binding assay (3H-NMS, CHO cell membranes)). Conditions: CHO cell membranes expressing human M3; 3H-NMS at 5×KD, 24 hr at RT; IC50 corrected by Cheng-Prussoff.
T1 construct: expressed in transfected cells; host or cells: CHO (CHO-K1) cells
T1 sequence (P20309 whole entry): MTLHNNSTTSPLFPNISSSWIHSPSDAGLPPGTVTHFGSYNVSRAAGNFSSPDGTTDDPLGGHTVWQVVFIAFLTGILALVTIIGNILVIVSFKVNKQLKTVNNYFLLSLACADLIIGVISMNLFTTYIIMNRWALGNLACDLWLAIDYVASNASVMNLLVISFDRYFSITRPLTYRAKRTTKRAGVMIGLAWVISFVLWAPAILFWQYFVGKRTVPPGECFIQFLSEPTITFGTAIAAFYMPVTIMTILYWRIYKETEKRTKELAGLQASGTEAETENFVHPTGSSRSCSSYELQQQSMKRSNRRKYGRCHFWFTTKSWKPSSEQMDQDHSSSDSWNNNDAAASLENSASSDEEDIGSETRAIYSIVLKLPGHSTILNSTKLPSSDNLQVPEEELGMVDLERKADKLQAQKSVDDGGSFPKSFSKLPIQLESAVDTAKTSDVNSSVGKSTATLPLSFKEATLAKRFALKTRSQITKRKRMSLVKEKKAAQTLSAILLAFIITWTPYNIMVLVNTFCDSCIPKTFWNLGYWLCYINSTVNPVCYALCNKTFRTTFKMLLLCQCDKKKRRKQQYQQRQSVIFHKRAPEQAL
Experimental: Binding Affinity Assessment at the Human Recombinant M3 Muscarinic Receptor
Cell Pellets from CHO (Chinese Hamster Ovary) cells recombinantly expressing the human muscarinic M3 receptor were homogenised in 20 mM HEPES (pH7.4) and centrifuged at 48000×g for 20 min at 4° C. The pellet was re-suspended in buffer and the homogenisation and centrifugation steps repeated. The resulting pellet was re-suspended in 1 ml buffer per 1 ml original packed cell volume and the homogenisation step repeated. Protein estimation was carried out on the suspension and 1 ml aliquots of ˜1 mg/ml frozen at −80° C.
hM3 Competition Binding Assay Protocol
Membranes (5 µg/well) were incubated with ^3H-NMS (at a concentration 5×KD) plus/minus test compound for 24 hr at RT (room temperature) in a 1 ml polystyrene 96-well deep well block. The final assay volume was 200 µl, comprising of: 20 µl plus/minus test compound; 20 µl ^3H-NMS (Perkin Elmer NEN 636) and 160 µl membrane solution. Total Binding was defined with 0.1% DMSO; Non-Specific Binding was defined with 1 µM Atropine. Assay buffer was 20 mM Hepes (pH 7.4).
Once all assay components were added, plates were covered and incubated at room temperature for 24 hrs with shaking. The assay was terminated by rapidly filtering through GF/B Unifilter plates pre-soaked with 0.5% polyethylenimine, using a Packard filtermate harvester, the filter plate was then washed with 3×1 ml 4° C. assay buffer. The filter plates were dried at 45° C. for 1 hour. The bottoms of the filter plates were sealed and 50 µl/well of Microscint ‘0’ added, the top of the plates were sealed with a Topseal. Following 90 mins, the plates were read on an NXT Topcount (1 minute read time per well).
The resulting data was expressed as a percentage of the specific binding (Specific binding=Total binding−Non-Specific Binding). % specific binding versus test compound concentration was plotted to determine an IC50 from a sigmoid curve using an in-house data analysis programme. IC50 values corrected to Ki values by applying the Cheng-Prussoff equation: […]
where IC50 is the concentration of unlabelled drug which inhibits by 50% the specific radioligand binding. [L] is the free radioligand concentrations and KD and Ki are the equilibrium dissociation constants of the radioligand and unlabelled drug respectively.

Point of comparison: `CN(CCCCCCCCCN1CCC(OC(=O)Nc2ccccc2-c2ccccc2)CC1)C(=O)c1ccc(Cl)cc1O` [Example 60, Biphenyl-2-yl-carbamic acid 1-{9-[(4-chloro-2-hydroxy-benzoyl)-methyl-amino]-nonyl}-piperidin-4-yl ester], Ki 3.61 nM. Against it:
- O=C(Nc1ccccc1-c1ccccc1)OC1CCN(CCCCCCCCCN(Cc2cccc(O)c2Cl)Cc2cccc(O)c2Cl)CC1 [Example 39, Biphenyl-2-yl-carbamic acid 1-{9-[bis-(2-chloro-3-hydroxy-benzyl)-amino]-nonyl}-piperidin-4-yl ester] — 3.2-fold lower, 1.13 nM
- CN(CCCCCCCCCN1CCC(OC(=O)Nc2ccccc2-c2ccccc2)CC1)Cc1cccc(F)c1O [Example 40, Biphenyl-2-yl-carbamic acid 1-{9-[(3-fluoro-2-hydroxy-benzyl)-methyl-amino]-nonyl}-piperidin-4-yl ester] — 5.7-fold lower, 0.638 nM
- CN(CCCCCCCCCN1CCC(OC(=O)Nc2ccccc2-c2ccccc2)CC1)Cc1cc(Cl)c(Cl)cc1O [Example 41, Biphenyl-2-yl-carbamic acid 1-{9-[(4,5-dichloro-2-hydroxy-benzyl)-methyl-amino]-nonyl}-piperidin-4-yl ester] — 2.8-fold lower, 1.3 nM
- CN(CCCCCCCCCN1CCC(OC(=O)Nc2ccccc2-c2ccccc2)CC1)Cc1ccc(F)c(O)c1 [Example 42, Biphenyl-2-yl-carbamic acid 1-{9-[(4-fluoro-3-hydroxy-benzyl)-methyl-amino]-nonyl}-piperidin-4-yl ester] — 15-fold lower, 0.233 nM
- CN(CCCCCCCCCN1CCC(OC(=O)Nc2ccccc2-c2ccccc2)CC1)Cc1cc(F)c(Cl)cc1O [Example 43, Biphenyl-2-yl-carbamic acid 1-{9-[(4-chloro-5-fluoro-2-hydroxy-benzyl)-methyl-amino]-nonyl}-piperidin-4-yl ester] — 12-fold lower, 0.295 nM
- CN(CCCCCCCCCN1CCC(OC(=O)Nc2ccccc2-c2ccccc2)CC1)Cc1ccc(O)c(Cl)c1 [Example 44, Biphenyl-2-yl-carbamic acid 1-{9-[(3-chloro-4-hydroxy-benzyl)-methyl-amino]-nonyl}-piperidin-4-yl ester] — 17-fold lower, 0.212 nM
- CN(CCCCCCCCCN1CCC(OC(=O)Nc2ccccc2-c2ccccc2)CC1)Cc1ccc(O)c(F)c1 [Example 45, Biphenyl-2-yl-carbamic acid 1-{9-[(3-fluoro-4-hydroxy-benzyl)-methyl-amino]-nonyl}-piperidin-4-yl ester] — 17-fold lower, 0.212 nM
- CN(CCCCCCCCCN1CCC(OC(=O)Nc2ccccc2-c2ccccc2)CC1)Cc1cc(Cl)ccc1O [Example 46, Biphenyl-2-yl-carbamic acid 1-{9-[(5-chloro-2-hydroxy-benzyl)-methyl-amino]-nonyl}-piperidin-4-yl ester] — 4.8-fold lower, 0.755 nM
- CN(CCCCCCCCCN1CCC(OC(=O)Nc2ccccc2-c2ccccc2)CC1)Cc1cc(F)ccc1O [Example 47, Biphenyl-2-yl-carbamic acid 1-{9-[(5-fluoro-2-hydroxy-benzyl)-methyl-amino]-nonyl}-piperidin-4-yl ester] — 6.8-fold lower, 0.529 nM
- CN(CCCCCCCCCN1CCC(OC(=O)Nc2ccccc2-c2ccccc2)CC1)Cc1cccc(O)c1Cl [Example 48, Biphenyl-2-yl-carbamic acid 1-{9-[(2-chloro-3-hydroxy-benzyl)-methyl-amino]-nonyl}-piperidin-4-yl ester] — 20-fold lower, 0.182 nM
- CN(CCCCCCCCCN1CCC(OC(=O)Nc2ccccc2-c2ccccc2)CC1)Cc1cc(F)cc(Cl)c1O [Example 49, Biphenyl-2-yl-carbamic acid 1-{9-[(3-chloro-5-fluoro-2-hydroxy-benzyl)-methyl-amino]-nonyl}-piperidin-4-yl ester] — 13-fold lower, 0.285 nM
- CN(CCCCCCCCCN1CCC(OC(=O)Nc2ccccc2-c2ccccc2)CC1)Cc1cc(Cl)c(O)c(Cl)c1 [Example 50, Biphenyl-2-yl-carbamic acid 1-{9-[(3,5-dichloro-4-hydroxy-benzyl)-methyl-amino]-nonyl}-piperidin-4-yl ester] — 16-fold lower, 0.22 nM
- CN(CCCCCCCCCN1CCC(OC(=O)Nc2ccccc2-c2ccccc2)CC1)Cc1cccc(O)c1F [Example 51, Biphenyl-2-yl-carbamic acid 1-{9-[(2-fluoro-3-hydroxy-benzyl)-methyl-amino]-nonyl}-piperidin-4-yl ester] — 16-fold lower, 0.231 nM
- CN(CCCCCCCCCN1CCC(OC(=O)Nc2ccccc2-c2ccccc2)CC1)Cc1cc(Cl)cc(Cl)c1O [Example 52, Biphenyl-2-yl-carbamic acid 1-{9-[(3,5-dichloro-2-hydroxy-benzyl)-methyl-amino]-nonyl}-piperidin-4-yl ester] — 5.7-fold lower, 0.637 nM
- CN(CCCCCCCCCN1CCC(OC(=O)Nc2ccccc2-c2ccccc2)CC1)Cc1cc(F)c(O)c(F)c1 [Example 53, Biphenyl-2-yl-carbamic acid 1-{9-[(3,5-difluoro-4-hydroxy-benzyl)-methyl-amino]-nonyl}-piperidin-4-yl ester] — 10-fold lower, 0.345 nM
- CN(CCCCCCCCCN1CCC(OC(=O)Nc2ccccc2-c2ccccc2)CC1)Cc1ccc(Cl)c(O)c1Cl [Example 54, Biphenyl-2-yl-carbamic acid 1-{9-[(2,4-dichloro-3-hydroxy-benzyl)-methyl-amino]-nonyl}-piperidin-4-yl ester] — 15-fold lower, 0.233 nM
- CN(CCCCCCCCCN1CCC(OC(=O)Nc2ccccc2-c2ccccc2)CC1)Cc1cc(F)cc(F)c1O [Example 55, Biphenyl-2-yl-carbamic acid 1-{9-[(3,5-difluoro-2-hydroxy-benzyl)-methyl-amino]-nonyl}-piperidin-4-yl ester] — 8.7-fold lower, 0.417 nM
- CN(CCCCCCCCCN1CCC(OC(=O)Nc2ccccc2-c2ccccc2)CC1)C(=O)c1cc(Cl)cc(Cl)c1O [Example 56, Biphenyl-2-yl-carbamic acid 1-{9-[(3,5-dichloro-2-hydroxy-benzoyl)-methyl-amino]-nonyl}-piperidin-4-yl ester] — 3.1-fold higher, 11.3 nM
- CN(CCCCCCCCCN1CCC(OC(=O)Nc2ccccc2-c2ccccc2)CC1)C(=O)c1cccc(Cl)c1O [Example 57, Biphenyl-2-yl-carbamic acid 1-{9-[(3-chloro-2-hydroxy-benzoyl)-methyl-amino]-nonyl}-piperidin-4-yl ester] — 4.1-fold lower, 0.87 nM
- CN(CCCCCCCCCN1CCC(OC(=O)Nc2ccccc2-c2ccccc2)CC1)C(=O)c1ccc(F)c(F)c1O [Example 58, Biphenyl-2-yl-carbamic acid 1-{9-[(3,4-difluoro-2-hydroxy-benzoyl)-methyl-amino]-nonyl}-piperidin-4-yl ester] — 2-fold lower, 1.83 nM
- CN(CCCCCCCCCN1CCC(OC(=O)Nc2ccccc2-c2ccccc2)CC1)C(=O)c1cccc(F)c1O [Example 59, Biphenyl-2-yl-carbamic acid 1-{9-[(3-fluoro-2-hydroxy-benzoyl)-methyl-amino]-nonyl}-piperidin-4-yl ester] — 2.8-fold lower, 1.27 nM
- CN(CCCCCCCCCN1CCC(OC(=O)Nc2ccccc2-c2ccccc2)CC1)C(=O)c1ccc(F)cc1O [Example 61, Biphenyl-2-yl-carbamic acid 1-{9-[(4-fluoro-2-hydroxy-benzoyl)-methyl-amino]-nonyl}-piperidin-4-yl ester] — 4.6-fold lower, 0.778 nM
- CN(CCCCCCCCCN1CCC(OC(=O)Nc2ccccc2-c2ccccc2)CC1)C(=O)c1ccc(Cl)c(O)c1 [Example 62, Biphenyl-2-yl-carbamic acid 1-{9-[(4-chloro-3-hydroxy-benzoyl)-methyl-amino]-nonyl}-piperidin-4-yl ester] — 3-fold lower, 1.21 nM
- CN(CCCCCCCCCN1CCC(OC(=O)Nc2ccccc2-c2ccccc2)CC1)C(=O)c1ccc(O)cc1F [Example 63, Biphenyl-2-yl-carbamic acid 1-{9-[(2-fluoro-4-hydroxy-benzoyl)-methyl-amino]-nonyl}-piperidin-4-yl ester] — 3.2-fold lower, 1.12 nM
- CN(CCCCCCCCCN1CCC(OC(=O)Nc2ccccc2-c2ccccc2)CC1)C(=O)c1ccc(O)c(F)c1F [Example 64, Biphenyl-2-yl-carbamic acid 1-{9-[(2,3-difluoro-4-hydroxy-benzoyl)-methyl-amino]-nonyl}-piperidin-4-yl ester] — 1.8-fold lower, 2 nM
- CN(CCCCCCCCCN1CCC(OC(=O)Nc2ccccc2-c2ccccc2)CC1)C(=O)c1ccc(O)cc1Cl [Example 65, Biphenyl-2-yl-carbamic acid 1-{9-[(2-chloro-4-hydroxy-benzoyl)-methyl-amino]-nonyl}-piperidin-4-yl ester] — 5.7-fold lower, 0.628 nM
- CN(CCCCCCCCCN1CCC(OC(=O)Nc2ccccc2-c2ccccc2)CC1)C(=O)Cc1cccc(O)c1 [Example 66, Biphenyl-2-yl-carbamic acid 1-(9-{[2-(3-hydroxy-phenyl)-acetyl]-methyl-amino}-nonyl)-piperidin-4-yl ester] — 12-fold lower, 0.292 nM
